According to patent CN114790169A, “四氢喹啉相关二环类化合物及其应用” (Guangzhou Institute of Biomedicine and Health of CAS, priority 2016, dated 2017):

target: T1, glucocorticoid receptor [糖皮质激素受体] (Homo sapiens, UniProt P04150); assay: not given; conditions: literature, in words; cited from earlier work
T1 sequence (P04150 1-777): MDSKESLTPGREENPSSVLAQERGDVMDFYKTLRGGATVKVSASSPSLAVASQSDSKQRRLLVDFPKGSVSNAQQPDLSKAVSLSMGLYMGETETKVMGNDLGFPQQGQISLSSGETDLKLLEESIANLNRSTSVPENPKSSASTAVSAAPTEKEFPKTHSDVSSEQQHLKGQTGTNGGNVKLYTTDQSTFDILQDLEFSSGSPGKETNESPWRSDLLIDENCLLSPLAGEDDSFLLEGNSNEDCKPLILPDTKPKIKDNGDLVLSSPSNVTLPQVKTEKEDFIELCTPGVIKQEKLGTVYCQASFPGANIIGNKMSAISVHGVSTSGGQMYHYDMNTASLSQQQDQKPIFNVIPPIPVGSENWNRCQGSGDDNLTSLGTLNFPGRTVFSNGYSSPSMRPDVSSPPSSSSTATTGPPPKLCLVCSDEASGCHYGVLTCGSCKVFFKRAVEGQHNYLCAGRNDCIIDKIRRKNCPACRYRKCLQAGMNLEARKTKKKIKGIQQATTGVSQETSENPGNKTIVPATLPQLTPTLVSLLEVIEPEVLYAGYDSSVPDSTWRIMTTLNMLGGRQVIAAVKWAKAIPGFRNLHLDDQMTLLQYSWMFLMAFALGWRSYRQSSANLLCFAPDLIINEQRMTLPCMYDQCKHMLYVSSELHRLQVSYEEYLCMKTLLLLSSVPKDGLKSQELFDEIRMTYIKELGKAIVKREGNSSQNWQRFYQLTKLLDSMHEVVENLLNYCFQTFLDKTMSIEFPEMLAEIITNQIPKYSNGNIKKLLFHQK

Q: For `C[C@H]1[C@H](C)CC[C@]2(C(=O)O)CC[C@]3(C)C(=CC[C@@H]4[C@@]5(C)CC[C@H](O)C(C)(C)[C@@H]5CC[C@]43C)[C@H]12` [熊果酸], which “action on glucocorticoid receptor” value is on record?
A: 对糖皮质激素受体也有作用

test system: other nuclear receptors (LXRα/β, FXR, PXR) [其他核受体 (LXRα/β,FXR,PXR)]; assay: not given; conditions: literature, in words; cited from earlier work

Q: For `O=S(=O)(c1ccccc1)N(CC(F)(F)F)c1ccc(C(O)(C(F)(F)F)C(F)(F)F)cc1` [T1317], which “action on other nuclear receptors” value is on record?
A: 还与至少四种其他核受体 (LXRα/β,FXR,PXR)有作用

target: T2, RORα (Homo sapiens, UniProt P35398); assay: not given; conditions: literature, in words; cited from earlier work
T2 sequence (P35398 1-523): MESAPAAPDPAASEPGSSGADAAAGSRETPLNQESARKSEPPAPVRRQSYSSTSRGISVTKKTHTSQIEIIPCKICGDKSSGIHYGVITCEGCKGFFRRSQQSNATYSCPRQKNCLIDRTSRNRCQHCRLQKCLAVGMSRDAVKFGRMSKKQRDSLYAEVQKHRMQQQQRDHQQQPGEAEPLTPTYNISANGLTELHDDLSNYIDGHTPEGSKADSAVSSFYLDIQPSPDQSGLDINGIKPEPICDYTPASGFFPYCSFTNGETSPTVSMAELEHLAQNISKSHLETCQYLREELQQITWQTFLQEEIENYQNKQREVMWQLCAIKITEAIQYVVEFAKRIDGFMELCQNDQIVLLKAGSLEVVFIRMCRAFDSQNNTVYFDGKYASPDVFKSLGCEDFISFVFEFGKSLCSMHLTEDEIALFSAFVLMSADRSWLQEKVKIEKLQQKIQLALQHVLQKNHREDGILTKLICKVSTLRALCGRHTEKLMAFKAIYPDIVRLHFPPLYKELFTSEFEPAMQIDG

Q: Which “action on RORα” value does the source give for `O=S(=O)(Nc1ccc(C(O)(C(F)(F)F)C(F)(F)F)cc1)c1cccs1` [SR3335] here?
A: RORα的选择性反向激动剂

Q: With `O=S(=O)(c1ccccc1)N(CC(F)(F)F)c1ccc(C(O)(C(F)(F)F)C(F)(F)F)cc1` [T1317] as the molecule, how does the “action on RORα” value read?
A: 可以与RORγ和RORα结合并调控它们的活性

Q: With `CC(=O)Nc1nc(C)c(S(=O)(=O)Nc2ccc(C(O)(C(F)(F)F)C(F)(F)F)cc2)s1` [SR1001] as the molecule, how does the “action on RORα” value read?
A: 对RORγ和RORα有双重作用的反向激动剂

target: T3, RORγ (Homo sapiens, UniProt P51449); assay: not given; conditions: literature, in words; cited from earlier work
T3 sequence (P51449 1-518): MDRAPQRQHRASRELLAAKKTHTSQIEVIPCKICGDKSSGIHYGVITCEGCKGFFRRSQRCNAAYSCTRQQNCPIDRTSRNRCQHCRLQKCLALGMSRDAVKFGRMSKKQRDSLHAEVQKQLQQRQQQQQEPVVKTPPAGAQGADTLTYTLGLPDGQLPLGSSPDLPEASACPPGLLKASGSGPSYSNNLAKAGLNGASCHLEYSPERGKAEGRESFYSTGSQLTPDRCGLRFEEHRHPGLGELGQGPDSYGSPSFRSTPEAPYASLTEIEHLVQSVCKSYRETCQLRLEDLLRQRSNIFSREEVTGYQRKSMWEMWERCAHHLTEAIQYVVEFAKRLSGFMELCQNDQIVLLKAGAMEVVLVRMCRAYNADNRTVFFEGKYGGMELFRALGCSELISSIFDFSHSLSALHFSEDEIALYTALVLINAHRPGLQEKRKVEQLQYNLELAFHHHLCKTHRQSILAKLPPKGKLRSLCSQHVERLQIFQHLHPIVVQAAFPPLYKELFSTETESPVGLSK

Q: For `C[C@H]1O[C@@H](O[C@H]2[C@@H](O)C[C@H](O[C@H]3[C@@H](O)C[C@H](O[C@H]4CC[C@@]5(C)[C@H](CC[C@@H]6[C@@H]5C[C@@H](O)[C@]5(C)[C@@H](C7=CC(=O)OC7)CC[C@]65O)C4)O[C@@H]3C)O[C@@H]2C)C[C@H](O)[C@@H]1O` [地高辛], which “action on RORγ” value is on record?
A: 可以作为RORγ的选择性调控物质

target: T4, nuclear receptor RORγ [核受体RORγ] (Homo sapiens, UniProt P51449); assay: Dual-luciferase reporter assay, inhibition of nuclear receptor RORγ at cell level in 293T cells (Gal4-RORγLBD); assay type: cell-based; conditions: inhibitory activity against RORγ at cell level; 293T cells, 24 h incubation with compound
T4 construct: 重组质粒:Gal4-RORγLBD:25ng; expressed in transfected cells; host or cells: 293T (human kidney epithelial cell line)
T4 sequence (P51449 269-508 limits assumed): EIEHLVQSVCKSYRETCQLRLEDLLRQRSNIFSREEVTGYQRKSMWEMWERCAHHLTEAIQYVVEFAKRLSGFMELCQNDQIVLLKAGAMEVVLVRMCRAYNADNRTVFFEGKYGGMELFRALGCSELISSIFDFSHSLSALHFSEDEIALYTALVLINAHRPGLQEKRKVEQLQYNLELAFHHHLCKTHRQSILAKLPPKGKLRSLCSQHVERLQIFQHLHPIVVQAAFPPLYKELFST

Q: With `O=S(=O)(Nc1ccc2c(c1)N(S(=O)(=O)c1ccc(F)cc1)CCC2)c1ccc2c(c1)OCCO2` [实施例8, N-(1-((4-氟苯基)磺酰基)-1,2,3,4-四氢喹啉-7-基)-2,3-二氢苯并[b][1,4] 二氧杂环己烯-6-磺酰胺] as the molecule, how does the IC50 read?
A: 790 nM

Q: For `COC(=O)c1ccccc1S(=O)(=O)N1CCCc2ccc(NS(=O)(=O)c3c(Cl)cccc3Cl)cc21` [实施例54, 2-((7-(2,6-二氯苯基磺酰氨基)-3,4-二氢喹啉-1(2H)-基)磺酰基)苯甲酸甲酯], which IC50 is on record?
A: 230 nM

Q: Which IC50 does the source give for `COC(=O)c1ccccc1S(=O)(=O)N1CCCc2ccc(NS(=O)(=O)c3cc(OC)ccc3OC)cc21` [实施例56, 2-((7-((2,5-二甲氧基苯基)磺酰氨基)-3,4-二氢喹啉-1(2H)-基) 磺酰基)苯甲酸甲酯] here?
A: 160 nM

Q: For “N-(1-(噻吩-2-基磺酰基)-1,2,3,4-四氢喹啉-6-基)-2,3-二氢苯并[b][1,4]二氧杂环己烯 -6-磺酰胺 [实施例66]”, which IC50 is on record?
A: 900 nM

Q: Which IC50 does the source give for `O=S(=O)(Nc1ccc2c(c1)N(S(=O)(=O)c1ccc(F)cc1)CCO2)c1ccc2c(c1)OCCO2` [实施例12, N-(4-((4-氟苯基)磺酰基)-3,4-二氢-2H-苯并[b][1,4]恶嗪-6-基)-2,3-二氢苯并[b] [1,4]二氧杂环己烯-6-磺酰胺] here?
A: 690 nM

Q: Which IC50 does the source give for `COC(=O)c1ccccc1S(=O)(=O)N1CCCc2ccc(NS(=O)(=O)c3ccc(OC)cc3)cc21` [实施例55, 2-((7-((4-甲氧基苯基)磺酰氨基)-3,4-二氢喹啉-1(2H)-基)磺酰基)苯甲酸甲酯] here?
A: 410 nM

Q: For `COC(=O)c1ccccc1S(=O)(=O)N1CCCc2ccc(NS(=O)(=O)c3ccc4c(c3)OCCO4)cc21` [实施例52, 2-((7-(2,3-二氢苯并[b][1,4]二氧杂环己烯-6-磺酰基)-3,4-二氢喹啉-1(2H) -基)磺酰基)苯甲酸甲酯], which IC50 is on record?
A: 700 nM

Q: For `COC(=O)c1cccc(CS(=O)(=O)N2CCCc3ccc(NS(=O)(=O)c4ccc(F)cc4F)cc32)c1` [实施例30, 3-(((7-(2,4-二氟苯基磺酰氨基)-3,4-二氢喹啉-1(2H)-基)磺酰基)甲基)苯甲酸甲酯], which IC50 is on record?
A: 930 nM

Q: With `COC(=O)c1ccc(CS(=O)(=O)Nc2ccc3c(c2)N(S(=O)(=O)c2ccc(F)cc2)CCC3)cc1` [实施例23, 4-((N-(1-((4-氟苯基)磺酰基)-1,2,3,4-四氢喹啉-7-基)氨磺酰)甲基)苯甲酸甲酯] as the molecule, how does the IC50 read?
A: 940 nM

Q: Which IC50 does the source give for `COC(=O)c1ccccc1S(=O)(=O)N1CCCc2ccc(NS(=O)(=O)c3cccc(Cl)c3F)cc21` [实施例53, 2-((7-(3-氯-2-氟苯基磺酰氨基)-3,4-二氢喹啉-1(2H)-基)磺酰基)苯甲酸甲酯] here?
A: 790 nM

Q: For `COC(=O)c1ccccc1S(=O)(=O)N1CCCc2ccc(NS(=O)(=O)c3ccc(F)cc3F)cc21` [实施例31, 2-((7-(2,4-二氟苯基磺酰氨基)-3,4-二氢喹啉-1(2H)-基)磺酰基)苯甲酸甲酯], which IC50 is on record?
A: 160 nM

Q: With `O=S(=O)(Nc1ccc2c(c1)N(S(=O)(=O)c1cccs1)CCC2)c1ccc2c(c1)OCCO2` [实施例48, N-(1-(噻吩-2-基磺酰基)-1,2,3,4-四氢喹啉-7-基)-2,3-二氢苯并[b][1,4]二氧杂环己烯-6-磺酰胺] as the molecule, how does the IC50 read?
A: 580 nM

Q: For `COC(=O)c1ccc(S(=O)(=O)Nc2ccc3c(c2)N(S(=O)(=O)c2ccc(F)cc2)CCC3)cc1` [实施例19, 4-(N-(1-((4-氟苯基)磺酰基)-1,2,3,4-四氢喹啉-7-基)氨磺酰)苯甲酸甲酯], which IC50 is on record?
A: 880 nM

Q: Which IC50 does the source give for `Cc1ccc(S(=O)(=O)Nc2ccc3c(c2)N(S(=O)(=O)c2ccc(F)cc2)CCC3)s1` [实施例5, N-(1-((4-氟苯基)磺酰基)-1,2,3,4-四氢-7-基)-5-甲基噻吩-2-磺酰胺] here?
A: 740 nM

Q: Which IC50 does the source give for `O=S(=O)(Nc1ccc2c(c1)N(S(=O)(=O)Cc1ccc(F)cc1)CCC2)c1ccc(F)cc1F` [实施例28, 2,4-二氟-N-(1-((4-氟苄基)磺酰基)-1,2,3,4-四氢喹啉-7-基)苯磺酰胺] here?
A: 740 nM

same assay, conditions: luciferase, RORγ cell level; reference drug T1317

Q: For `COC(=O)c1cccc(CS(=O)(=O)Nc2ccc3c(c2)N(S(=O)(=O)c2ccc(F)cc2)CCC3)c1` [实施例24, 3-((N-(1-((4-氟苯基)磺酰基)-1,2,3,4-四氢喹啉-7-基)氨磺酰)甲基)苯甲酸甲酯], which “inhibitory activity compared with reference drug” value is on record?
A: 比对照药活性相当

Q: With `CS(=O)(=O)c1cccc(S(=O)(=O)Nc2ccc3c(c2)N(S(=O)(=O)c2ccc(F)cc2)CCC3)c1` [实施例22, N-(1-((4-氟苯基)磺酰基)-1,2,3,4-四氢喹啉-7-基)-3-(甲基磺酰基)苯磺酰胺] as the molecule, how does the “inhibitory activity compared with reference drug” value read?
A: 比对照药活性相当

Q: Which “inhibitory activity compared with reference drug” value does the source give for `COC(=O)c1ccccc1S(=O)(=O)N1CCCc2ccc(NS(=O)(=O)c3ccc(F)cc3F)cc21` [实施例31, 2-((7-(2,4-二氟苯基磺酰氨基)-3,4-二氢喹啉-1(2H)-基)磺酰基)苯甲酸甲酯] here?
A: 比对照药活性更好

test system: not given; assay: not given; conditions: literature, in words; cited from earlier work

Q: For `C[C@H]1O[C@@H](O[C@H]2[C@@H](O)C[C@H](O[C@H]3[C@@H](O)C[C@H](O[C@H]4CC[C@@]5(C)[C@H](CC[C@@H]6[C@@H]5C[C@@H](O)[C@]5(C)[C@@H](C7=CC(=O)OC7)CC[C@]65O)C4)O[C@@H]3C)O[C@@H]2C)C[C@H](O)[C@@H]1O` [地高辛], which side effects is on record?
A: 有很强的副作用
